Assay results taken from ChEMBL document CHEMBL1155271, “Synthesis, crystal structures and antibacterial activity studies of aza-derivatives of phytoalexin from cotton plant--gossypol” (2009).
≈ marks a conversion by molar mass, not a printed value. Calls of active or inactive are those of the source. The calls are words filed in the database; no cut-off is given here.

Assays:
Staphylococcus aureus [1] = test: Antimicrobial activity against methicillin-resistant Staphylococcus aureus 143/6 by twofold dilution technique; assay type: functional
Staphylococcus aureus [2] = test: Antimicrobial activity against methicillin-resistant Staphylococcus aureus 146/6 by twofold dilution technique; assay type: functional
Staphylococcus aureus [3] = test: microbe, parasite or virus in culture; settings: ATCC 29213, 18 h, read-out: DIZ
Description: Antimicrobial activity against Staphylococcus aureus ATCC 29213 at 5 ug after 18 hrs by disk diffusion method

Staphylococcus aureus [4] = test: Antimicrobial activity against Methicillin susceptible Staphylococcus aureus 242/7 by twofold dilution technique; assay type: functional
Staphylococcus aureus [5] = test: Antimicrobial activity against Methicillin susceptible Staphylococcus aureus 207/7 by twofold dilution technique; assay type: functional
Staphylococcus aureus [6] = test: Antimicrobial activity against Staphylococcus aureus ATCC 25923 after 18 hrs by twofold dilution technique; assay type: functional; settings: ATCC 25923, 18 h
Staphylococcus aureus [7] = test: Antimicrobial activity against methicillin-resistant Staphylococcus aureus 141/6 by twofold dilution technique; assay type: functional
[8] = test system: Staphylococcus epidermidis; test: Antimicrobial activity against Staphylococcus epidermidis ATCC 12228 by twofold dilution technique; assay type: functional
Staphylococcus aureus [9] = test: Antimicrobial activity against methicillin-resistant Staphylococcus aureus 200/7 by twofold dilution technique; assay type: functional
Staphylococcus aureus [10] = test: Antimicrobial activity against Methicillin susceptible Staphylococcus aureus 239/7 by twofold dilution technique; assay type: functional
Staphylococcus aureus [11] = test: microbe, parasite or virus in culture; settings: ATCC 6538, 18 h, read-out: DIZ
Description: Antimicrobial activity against Staphylococcus aureus ATCC 6538 at 5 ug after 18 hrs by disk diffusion method

Staphylococcus aureus [12] = test: Antimicrobial activity against methicillin-resistant Staphylococcus aureus 140/6 by twofold dilution technique; assay type: functional
Staphylococcus aureus [13] = test: Antimicrobial activity against methicillin-resistant Staphylococcus aureus 136/6 by twofold dilution technique; assay type: functional
Micrococcus luteus [14] = test: Antimicrobial activity against Micrococcus luteus ATCC 10240 by twofold dilution technique; assay type: functional
Staphylococcus aureus [15] = test: Antimicrobial activity against Staphylococcus aureus ATCC 6538 after 18 hrs by twofold dilution technique; assay type: functional; settings: ATCC 6538, 18 h
Staphylococcus aureus [16] = test: Antimicrobial activity against Methicillin susceptible Staphylococcus aureus 206/7 by twofold dilution technique; assay type: functional
Bacillus subtilis [17] = test: microbe, parasite or virus in culture; settings: ATCC 6633, 18 h, read-out: DIZ
Description: Antimicrobial activity against Bacillus subtilis ATCC 6633 at 5 ug after 18 hrs by disk diffusion method

Micrococcus luteus [18] = test: Antimicrobial activity against Micrococcus luteus ATCC 10240 at 5 ug after 18 hrs by disk diffusion method; assay type: functional; settings: ATCC 10240, 18 h, read-out: DIZ
Staphylococcus aureus [19] = test: Antimicrobial activity against Methicillin susceptible Staphylococcus aureus 237/7 by twofold dilution technique; assay type: functional
Enterococcus hirae [20] = test: Antimicrobial activity against Enterococcus hirae ATCC 10541 after 18 hrs by twofold dilution technique; assay type: functional; settings: ATCC 10541, 18 h
Staphylococcus aureus [21] = test: Antimicrobial activity against methicillin-resistant Staphylococcus aureus 144/6 by twofold dilution technique; assay type: functional
Staphylococcus aureus [22] = test: Antimicrobial activity against methicillin-resistant Staphylococcus aureus 236/7 by twofold dilution technique; assay type: functional
Staphylococcus aureus [23] = test: microbe, parasite or virus in culture; settings: ATCC 25923, 18 h, read-out: DIZ
Description: Antimicrobial activity against Staphylococcus aureus ATCC 25923 at 5 ug after 18 hrs by disk diffusion method

Staphylococcus aureus [24] = test: Antimicrobial activity against Methicillin susceptible Staphylococcus aureus 243/7 by twofold dilution technique; assay type: functional
Bacillus cereus [25] = test: Antimicrobial activity against Bacillus cereus ATCC 11778 after 18 hrs by twofold dilution technique; assay type: functional; settings: ATCC 11778, 18 h
Staphylococcus aureus [26] = test: Antimicrobial activity against Methicillin susceptible Staphylococcus aureus 212/7 by twofold dilution technique; assay type: functional
Staphylococcus aureus [27] = test: Antimicrobial activity against methicillin-resistant Staphylococcus aureus 218/7 by twofold dilution technique; assay type: functional
Staphylococcus aureus [28] = test: Antimicrobial activity against Methicillin susceptible Staphylococcus aureus 213/7 by twofold dilution technique; assay type: functional
Micrococcus luteus [29] = test: Antimicrobial activity against Micrococcus luteus ATCC 9341 at 5 ug after 18 hrs by disk diffusion method; assay type: functional; settings: ATCC 9341, 18 h, read-out: DIZ
Bacillus cereus [30] = test: Antimicrobial activity against Bacillus cereus ATCC 11778 at 5 ug after 18 hrs by disk diffusion method; assay type: functional; settings: ATCC 11778, 18 h, read-out: DIZ
Staphylococcus aureus [31] = test: Antimicrobial activity against Staphylococcus aureus NCTC 4163 after 18 hrs by twofold dilution technique; assay type: functional; settings: NCTC 4163, 18 h
Enterococcus hirae [32] = test: Antimicrobial activity against Enterococcus hirae ATCC 10541 at 5 ug after 18 hrs by disk diffusion method; assay type: functional, organism-based
Staphylococcus aureus [33] = test: Antimicrobial activity against Methicillin susceptible Staphylococcus aureus 208/7 by twofold dilution technique; assay type: functional
Staphylococcus aureus [34] = test: microbe, parasite or virus in culture; settings: NCTC 4163, 18 h, read-out: DIZ
Description: Antimicrobial activity against Staphylococcus aureus NCTC 4163 at 5 ug after 18 hrs by disk diffusion method

Staphylococcus aureus [35] = test: Antimicrobial activity against methicillin-resistant Staphylococcus aureus 217/7 by twofold dilution technique; assay type: functional
Micrococcus luteus [36] = test: Antimicrobial activity against Micrococcus luteus ATCC 9341 after 18 hrs by twofold dilution technique; assay type: functional; settings: ATCC 9341, 18 h
Staphylococcus aureus [37] = test: Antimicrobial activity against Methicillin susceptible Staphylococcus aureus 238/7 by twofold dilution technique; assay type: functional
[38] = test system: Staphylococcus epidermidis; test: microbe, parasite or virus in culture; settings: ATCC 12228, 18 h, read-out: DIZ
Description: Antimicrobial activity against Staphylococcus epidermidis ATCC 12228 at 5 ug after 18 hrs by disk diffusion method

Bacillus subtilis [39] = test: Antimicrobial activity against Bacillus subtilis ATCC 6633 after 18 hrs by twofold dilution technique; assay type: functional; settings: ATCC 6633, 18 h
Staphylococcus aureus [40] = test: Antimicrobial activity against Staphylococcus aureus ATCC 29213 after 18 hrs by twofold dilution technique; assay type: functional; settings: ATCC 29213, 18 h

**Q.** What does the source list for `O=C(O)c1cn(C2CC2)c2cc(N3CCNCC3)c(F)cc2c1=O` [CIPROFLOXACIN]?
**A.** MIC (Staphylococcus aureus [1]): > 8 µg/mL; MIC (Staphylococcus aureus [2]): > 8 µg/mL; zone of inhibition at 5 µg/disc (Staphylococcus aureus [3]): 22 mm; MIC (Staphylococcus aureus [4]): 0.5 µg/mL (≈ 1.51 µM); MIC (Staphylococcus aureus [5]): 0.5 µg/mL (≈ 1.51 µM); MIC (Staphylococcus aureus [6]): 0.5 µg/mL (≈ 1.51 µM); MIC (Staphylococcus aureus [7]): > 8 µg/mL; MIC [8]: 4 µg/mL (≈ 12.1 µM); MIC (Staphylococcus aureus [9]): > 8 µg/mL; MIC (Staphylococcus aureus [10]): 0.5 µg/mL (≈ 1.51 µM); zone of inhibition at 5 µg/disc (Staphylococcus aureus [11]): 28 mm; MIC (Staphylococcus aureus [12]): > 8 µg/mL; MIC (Staphylococcus aureus [13]): > 8 µg/mL; MIC (Micrococcus luteus [14]): 0.5 µg/mL (≈ 1.51 µM); MIC (Staphylococcus aureus [15]): < 0.125 µg/mL; MIC (Staphylococcus aureus [16]): 2 µg/mL (≈ 6.04 µM); zone of inhibition at 5 µg/disc (Bacillus subtilis [17]): 40 mm; zone of inhibition at 5 µg/disc (Micrococcus luteus [18]): 24 mm; MIC (Staphylococcus aureus [19]): 4 µg/mL (≈ 12.1 µM); MIC (Enterococcus hirae [20]): 0.5 µg/mL (≈ 1.51 µM); MIC (Staphylococcus aureus [21]): > 8 µg/mL; MIC (Staphylococcus aureus [22]): 1 µg/mL (≈ 3.02 µM); zone of inhibition at 5 µg/disc (Staphylococcus aureus [23]): 26 mm; MIC (Staphylococcus aureus [24]): 0.5 µg/mL (≈ 1.51 µM); MIC (Bacillus cereus [25]): 1 µg/mL (≈ 3.02 µM); MIC (Staphylococcus aureus [26]): 0.5 µg/mL (≈ 1.51 µM); MIC (Staphylococcus aureus [27]): 4 µg/mL (≈ 12.1 µM); MIC (Staphylococcus aureus [28]): 0.5 µg/mL (≈ 1.51 µM); zone of inhibition at 5 µg/disc (Micrococcus luteus [29]): 22 mm; zone of inhibition at 5 µg/disc (Bacillus cereus [30]): 20 mm; MIC (Staphylococcus aureus [31]): 0.5 µg/mL (≈ 1.51 µM); diameter of the inhibition zone (DIZ) (Enterococcus hirae [32]): inactive; MIC (Staphylococcus aureus [33]): 0.5 µg/mL (≈ 1.51 µM); zone of inhibition at 5 µg/disc (Staphylococcus aureus [34]): 26 mm; MIC (Staphylococcus aureus [35]): > 8 µg/mL; MIC (Micrococcus luteus [36]): 0.5 µg/mL (≈ 1.51 µM); MIC (Staphylococcus aureus [37]): 0.5 µg/mL (≈ 1.51 µM); zone of inhibition at 5 µg/disc [38]: 30 mm; MIC (Bacillus subtilis [39]): 2 µg/mL (≈ 6.04 µM); MIC (Staphylococcus aureus [40]): 0.5 µg/mL (≈ 1.51 µM)
